From US20260200903A1, “PHARMACEUTICAL COMPOSITION FOR AMELIORATING MALIGNANT DISEASES” (KINKI UNIVERSITY, priority 2020, published 2026)

What was measured:
Format in all cases: cell-based
[1] = test system: Rec-1 cells (mantle cell lymphoma cell line); assay: Cell death inducing effect on Rec-1 cells, trypan blue staining; conditions: Rec-1 (mantle cell lymphoma), cell viability
Description: (§1) Rec-1 cells (mantle cell lymphoma cell line) were cultured under 5% CO2 at 37° C. The culture medium used RPMI-1640 medium with 100 μg/mL penicillin, 100 U/mL streptomycin and fetal bovine serum. Rec-1 cells were seeded into 96-well plates and incubated with each concentration of the compounds was added, and cell viability was determined by the trypan blue staining.
(§2) For controls, only 0.5% DMSO (diluted in PBS) used to dissolve the compounds was added. For each concentration, each bar line is indicated by an arrow with the sign “n, a, 1, 2, 3, 4, 5, 6, 7, 8, 9, 10, 11, 12” from left to right. The “1, 3, 5, 7, 9, 11” are omitted from the graph, but the sign “1” shall be indicated by an arrow between the signs “a” and “2”, the sign “3” between the signs “2” and “4”, and other odd numbers shall likewise be indicated by arrows between even numbers before and after.
(§3) The sign “n” is the norathyriol (formula (n)) administration group, the sign “a” is the mangiferin 8a (formula (a)) administration group, the sign “1” is the yk-7 (formula (1)) administration group, the sign “2” is the yk-8-1 (formula (2)) administration group, the sign “3” is the yk-8-3 (formula (3)) administration group, the sign “4” is the M7 (formula (4)) administration group, the sign “5” is the M9 (formula (5)) administration group, the sign “6” is the M11 (formula (6)) administration group, the sign “7” is the M12 (formula (7)) administration group, the sign “8” is the M14 (formula (8)) administration group, the sign “9” is the M15 (formula (9)) administration group, the sign “10” is the M16 (formula (10)) administration group, the sign “11” is the M18 (formula (11)) administration group, the sign “12” is the M19 (formula (12)) administration group, respectively. The IC50 values for each compound is also listed in the upper right corner of the figure.

[2] = test system: RR1 cells (rituximab-resistant burkitt lymphoma cell line); assay: Cell death inducing effect on RR1 cells, trypan blue staining; conditions: RR1 (Burkkit lymphoma; rituximab resistance), cell viability
Description: Raji cells, a burkitt lymphoma cell line, were modified to be rituximab-resistant and named RR1 cells.
RR1 cells (rituximab-resistant burkitt lymphoma cell line) were cultured under 5% CO2 at 37° C. The culture medium used RPMI-1640 medium with 100 μg/mL penicillin, 100 U/mL streptomycin and fetal bovine serum. RR-1 cells were seeded into 96-well plates and incubated with each concentration of the compounds was added, and cell viability was determined by the trypan blue staining.
as §2, §3

[3] = test system: SU-DHL-4 cells (diffuse large B-cell lymphoma); assay: Cell death inducing effect on SU-DHL-4 cells, trypan blue staining; conditions: SU-DHL-4 (DLBCL), cell viability
Description: SU-DHL-4 cells (diffuse large B-cell lymphoma) were cultured under 5% CO2 at 37° C.
The culture medium used RPMI-1640 medium with 100 μg/mL penicillin, 100 U/mL streptomycin and fetal bovine serum. SU-DHL-4 cells were seeded into 96-well plates and incubated with each concentration of the compounds was added, and cell viability was determined by the trypan blue staining.
as §2, §3

[4] = test system: CCRF-SB cells (acute lymphocytic leukemia cell line); assay: Cell death inducing effect on CCRF-SB cells, trypan blue staining; conditions: CCRF-SB (acute lymphoblastic leukemia), cell viability
Description: as §1, with “CCRF-SB” for “Rec-1”, “(acute lymphocytic leukemia” for “(mantle cell lymphoma”
as §2, §3

[5] = test system: RPMI1788 cells (human normal B cell line); assay: Cell death inducing effect on RPMI1788 normal B cells, trypan blue staining; conditions: RPMI1788 (normal B lymphocyte), cell viability
Description: as §1, with “RPMI1788” for “Rec-1”, “(human normal B” for “(mantle cell lymphoma”
as §2, §3

CD138 [6] = assay: CD138 expression in KMS-28BM cells, flow cytometry; conditions: 10 days, concentration lower than the IC50 (0.005-50 μM), compared to the positive control
Description: As a control, compounds untreated KMS-28BM cells were seeded in 75 cm^2 flasks and incubated for 10 days at 37° C. and 5% CO2. KMS-28BM cells were seeded into 75 cm^2 flasks and pre-cultured for 4 h. After incubation, KMS-28BM cells were treated with […], 0.05 μM M9, 0.1 μM yk-7, 0.1 μM yk-8-3, 50 μM yk-8-1, 0.5 μM M11, […], 0.005 μM M14, 0.005 μM M15, 0.005 μM M16, 0.5 μM M18, and 0.5 μM M19 at final concentrations, and incubated for 10 days at 37° C. and 5% CO2. This added amount is a concentration lower than the IC50 of the above compounds for KMS-28BM cells. After 10 days of incubation, cells were stained with anti-CD138 antibody, a marker of multiple myeloma grade, and CD138 expression was measured using BD LSRFortessa.
Results are shown in FIG. 17, FIG. 18, FIG. 19 and FIG. 20. The horizontal axis represents the expression level of CD138 and the vertical axis represents the number of cells.

CD138 [7] = assay: CD138 expression in L363 cells, flow cytometry; conditions: 10 days, concentration lower than the IC50 (0.005-50 μM), compared to the positive control
Description: As a control, compounds untreated L363 cells were seeded in 75 cm^2 flasks and incubated for 10 days at 37° C. and 5% CO2. L363 cells were seeded into 75 cm^2 flasks and pre-cultured for 4 h. After incubation, L363 cells were treated with 0.1 μM M7, 0.05 μM M9, 0.1 μM yk-7, 0.1 μM yk-8-3, 50 μM yk-8-1, 0.1 μM M11, 0.01 μM M12, 0.005 μM M14, 0.005 μM M15, 0.005 μM M16, 1 μM M18, and 1 μM M19 at final concentrations, and incubated for 10 days at 37° C. and 5% CO2. This added amount is a concentration lower than the IC50 of the above compounds for L363 cells. After 10 days of incubation, cells were stained with anti-CD138 antibody, a marker of multiple myeloma grade, and CD138 expression was measured using BD LSRFortessa.
Results are shown in FIG. 25, FIG. 26, FIG. 27 and FIG. 28. The horizontal axis represents the expression level of CD138 and the vertical axis represents the number of cells.

Compound	IC50 [1]	IC50 [2]	IC50 [3]	IC50 [4]	IC50 [5]	IC50 ([1]; Homo sapiens, Rec1)	IC50 ([3]; Homo sapiens)	IC50 ([4]; Homo sapiens)	IC50 ([5]; Homo sapiens, RPMI-1788)	CD138 expression levels (CD138 [6])	CD138 expression levels (CD138 [7])
1,2′,3′,4′,6-penta-O-propionylmangiferin [Compound 8a, reference compound]	22500 nM	328 nM	8060 nM	7.42 µM	> 100 µM						
CCC(=O)OC[C@H]1O[C@@H](c2c(OC(=O)CC)cc3oc4cc(OC(=O)CC)c(OC(=O)CC)cc4c(=O)c3c2OC(=O)CC)[C@H](OC(=O)CC)[C@@H](OC(=O)CC)[C@@H]1OC(=O)CC [Compound M7, 1,3,2′,3′,4′,6,6′,7-octa-O-propionylmangiferin]		99 nM				2250 nM	771 nM	6.76 µM	> 100 µM	markedly reduced	markedly reduced
CCC(=O)OC[C@H]1O[C@@H](c2c(O)cc3oc4cc(O)c(O)cc4c(=O)c3c2O)[C@H](OC(=O)CC)[C@@H](OC(=O)CC)[C@@H]1OC(=O)CC [Compound M9, 2′,3′,4′,6′-tetra-O-propionylmangiferin]		7 nM				816 nM	86 nM	1.62 µM	> 100 µM	markedly reduced	markedly reduced
CCCC(=O)OC[C@H]1O[C@@H](c2c(OC(=O)CCC)cc3oc4cc(OC(=O)CCC)c(OC(=O)CCC)cc4c(=O)c3c2OC(=O)CCC)[C@H](OC(=O)CCC)[C@@H](OC(=O)CCC)[C@@H]1OC(=O)CCC [Compound M11, 1,3,2′,3′,4′,6,6′,7-octa-O-butyrylmangiferin]	926 nM	828 nM	415 nM	7.82 µM	> 100 µM					markedly reduced	markedly reduced
CCCC(=O)OC[C@H]1O[C@@H](c2c(O)cc3oc4cc(O)c(O)cc4c(=O)c3c2OC(=O)CCC)[C@H](OC(=O)CCC)[C@@H](OC(=O)CCC)[C@@H]1OC(=O)CCC [Compound M12, 1,2′,3′,4′,6-penta-O-butyrylmangiferin]		15 nM				951 nM	5 nM	0.954 µM	75 µM	markedly reduced	markedly reduced
CCCC(=O)OC[C@H]1O[C@@H](c2c(O)cc3oc4cc(O)c(O)cc4c(=O)c3c2O)[C@H](OC(=O)CCC)[C@@H](OC(=O)CCC)[C@@H]1OC(=O)CCC [Compound M14, 2′,3′,4′,6′-tetra-O-butyrylmangiferin]		8 nM				24 nM	2 nM	0.287 µM	69 µM	markedly reduced	markedly reduced
CC(C)(C)C(=O)OC[C@H]1O[C@@H](c2c(O)cc3oc4cc(O)c(O)cc4c(=O)c3c2O)[C@H](OC(=O)C(C)(C)C)[C@@H](OC(=O)C(C)(C)C)[C@@H]1OC(=O)C(C)(C)C [Compound M15, 2′,3′,4′,6′-tetra-O-pivaloylmangiferin]		11 nM				32 nM	2 nM	0.357 µM	71 µM	markedly reduced	markedly reduced
CCCCO[C@@H]1[C@@H](OCCCC)[C@H](c2c(O)cc3oc4cc(O)c(O)cc4c(=O)c3c2O)O[C@H](COC(=O)CCC)[C@H]1OC(=O)CCC [Compound M16, 2′,3′-di-O-butyl-4′,6′-di-O-butyrylmangiferin]		7 nM				20 nM	11 nM	0.198 µM	58 µM	markedly reduced	markedly reduced
O=c1c2cc(O)c(O)cc2oc2cc(O)cc(OCCO)c12 [Compound M18, 3,6,7-trihydroxy-1-(2-hydroxyethoxy)-9H-xanthen-9-one]		651 nM				9120 nM	9580 nM	9.18 µM	> 100 µM	markedly reduced	markedly reduced
C=CCOc1cc(O)cc2oc3cc(O)c(O)cc3c(=O)c12 [Compound M19, 1-allyloxy-3,6,7-trihydroxy-9H-xanthen-9-one]		791 nM				21600 nM	17400 nM	18.2 µM	> 100 µM	markedly reduced	markedly reduced
O=c1c2cc(O)c(O)cc2oc2cc(O)cc(O)c12 [norathyriol, reference compound]		737 nM				15800 nM	18400 nM	12.3 µM			
CCCCC(=O)OC[C@H]1O[C@@H](c2c(O)cc3oc4cc(O)c(O)cc4c(=O)c3c2O)[C@H](OC(=O)CCCC)[C@@H](OC(=O)CCCC)[C@@H]1OC(=O)CCCC [yk-7, 2′,3′,4′,6′-tetra-O-valerylmangiferin]		42 nM				2600 nM	288 nM	1.84 µM	2.76 µM	markedly reduced	markedly reduced
CCCCC(=O)OC[C@H]1O[C@@H](c2c(OC(=O)CCCC)cc3oc4cc(OC(=O)CCCC)c(OC(=O)CCCC)cc4c(=O)c3c2OC(=O)CCCC)[C@H](OC(=O)CCCC)[C@@H](OC(=O)CCCC)[C@@H]1OC(=O)CCCC [yk-8-1, 1,3,2′,3′,4′,6,6′,7-octa-O-valerylmangiferin]	> 100000 nM	21400 nM	> 100000 nM	> 100 µM	> 100 µM					markedly reduced	markedly reduced
